Data from patent US10954197B2, “Cathepsin-D and angiogenesis inhibitors and compositions thereof for treating breast cancer” (YOGEE'S BIOINNOVATIONS PRIVATE LIMITED, priority 2017, dated 2021).

Melting point, 40 to 42 °C:
Cc1cc([N+](=O)[O-])ccc1NC(=O)CSc1n[nH]c(NC(=O)NCc2ccccc2)n1 [Example 21, 2-((5-(3-benzylureido)-1H-1,2,4-triazol-3-yl)thio)-N-(2-methyl-4-nitrophenyl)acetamide]
Cc1cccc(NCc2nc(SCC(=O)Nc3ccc(Cl)c(Cl)c3)n[nH]2)c1 [Example 6, N-(3,4-dichlorophenyl)-2-((5-((m-tolylamino)methyl)-1H-1,2,4-triazol-3-yl)thio)acetamide]
O=C(CSc1n[nH]c(CNc2ccccc2)n1)Nc1cccc(Br)c1 [Example 11, N-(3-bromophenyl)-2-((5-((phenylamino)methyl)-1H-1,2,4-triazol-3-yl)thio)acetamide]
O=C(CSc1n[nH]c(NC(=O)NCc2ccccc2)n1)Nc1ccc([N+](=O)[O-])cc1 [Example 19, 2-((5-(3-benzylureido)-1H-1,2,4-triazol-3-yl)thio)-N-(4-nitrophenyl)acetamide]
COc1cc(NC(=O)CSc2n[nH]c(CNc3ccccc3)n2)cc(OC)c1 [Example 14, N-(3,5-dimethoxyphenyl)-2-((5-((phenylamino)methyl)-1H-1,2,4-triazol-3-yl)thio)acetamide]
COc1ccc(Cl)cc1NC(=O)CSc1n[nH]c(CNc2cccc(C)c2)n1 [Example 1, N-(5-chloro-2-methoxyphenyl)-2-((5-((m-tolylamino)methyl)-1H-1,2,4-triazol-3-yl)thio)acetamide]
O=C(CSc1n[nH]c(CNc2ccccc2)n1)Nc1ccc(Cl)c(Cl)c1 [Example 13, N-(3,4-dichlorophenyl)-2-((5-((phenylamino)methyl)-1H-1,2,4-triazol-3-yl)thio)acetamide]
Cc1cccc(NCc2nc(SCC(=O)Nc3cccc(F)c3)n[nH]2)c1 [Example 3, N-(3-fluorophenyl)-2-((5-((m-tolylamino)methyl)-1H-1,2,4-triazol-3-yl)thio)acetamide]
Cc1cccc(NCc2nc(SCC(=O)Nc3cc(C(F)(F)F)ccc3Cl)n[nH]2)c1 [Example 8, N-(2-chloro-5-(trifluoromethyl)phenyl)-2-((5-((m-tolylamino)methyl)-1H-1,2,4-triazol-3-yl)thio)acetamide]
CC(=O)c1cccc(NC(=O)CSc2n[nH]c(NC(=S)NCc3ccccc3)n2)c1 [Example 18, N-(3-acetylphenyl)-2-((5-(3-benzylthioureido)-1H-1,2,4-triazol-3-yl)thio)acetamide]
COc1cc(NC(=O)CSc2n[nH]c(CNc3cccc(C)c3)n2)cc(OC)c1 [Example 7, N-(3,5-dimethoxyphenyl)-2-((5-((m-tolylamino)methyl)-1H-1,2,4-triazol-3-yl)thio)acetamide]
COc1ccc(NC(=O)CSc2n[nH]c(CNc3cccc(C)c3)n2)cc1 [Example 5, N-(4-methoxyphenyl)-2-((5-((m-tolylamino)methyl)-1H-1,2,4-triazol-3-yl)thio)acetamide]
O=C(CSc1n[nH]c(CNc2ccccc2)n1)Nc1cccc(F)c1 [Example 10, N-(3-fluorophenyl)-2-((5-((phenylamino)methyl)-1H-1,2,4-triazol-3-yl)thio)acetamide]
CC(=O)c1cccc(NC(=O)CSc2n[nH]c(NC(=O)NCc3ccccc3)n2)c1 [Example 20, N-(3-acetylphenyl)-2-((5-(3-benzylureido)-1H-1,2,4-triazol-3-yl)thio)acetamide]
Cc1cccc(NCc2nc(SCC(=O)Nc3ccccc3)n[nH]2)c1 [Example 2, N-Phenyl-2-((5-((m-tolylamino)methyl)-1H-1,2,4-triazol-3-yl)thio)acetamide]
COc1ccc(NC(=O)CSc2n[nH]c(CNc3ccccc3)n2)cc1 [Example 12, N-(4-methoxyphenyl)-2-((5-((phenylamino)methyl)-1H-1,2,4-triazol-3-yl)thio)acetamide]
O=C(CSc1n[nH]c(CNc2ccccc2)n1)Nc1ccccc1 [Example 9, N-phenyl-2-((5-((phenylamino)methyl)-1H-1,2,4-triazol-3-yl)thio)acetamide]
